The results in this text go back to patent EP0765662A1, “HIV GROWTH INHIBITORY COMPOSITION” (Kochi, Mutsuyuki, priority 1994, dated 1995).

Data set [1] in a line: Cytotoxicity of SBA, trypan blue dye-exclusion, U1 cells. As to conditions: human, read-out: Rate of survival of the cells (%). It is filed as cell-based. An excerpt: It is known that stimulation of HIV gene by TPA and tumor necrosis factor (TNF) can activate the HIV gene which is latent as the HIV-provirus within the T-cells as infected with HIV and said stimulation can thus strongly induce the progresses of sprouting and release of the viral particles of HIV. It is considered that said activation of the HIV gene for the occurrence or developement of HIV virus would be caused by such an oxidation stress which is brought about within the host cells by any stimulation given from outside the host cells as above-mentioned. Further, such discoveries and observations have been reported that NFkB, which is a nuclear factor wthin the cells, can play important part in the proliferation of HIV virus, and that the oxidation-reduction status of the NFkB is important for the activation of this factor NFkB, and so on. […] (a) Test of examining cytotoxicity of SBA against various kinds of T-cells A3.01 cells (HAT-susceptible CEM cell strain), A3.01 cells as infected with HIV, and the above-mentioned U1 cells were cultivated, respectively, in an improved RPM1-1640 media containing SBA added at different concentrations. After the cultivation, the number of the cells under test which still survived was determined under a polarizing microscope by a trypan blue dye-exclusion method.

The test system of the next data set is HIVBRU. The data set is described as follows: Formation of giant cells from HIV-infected Molt-4 cells (mixed cultivation, microscopic observation). The format is cell-based. As to conditions: mixed cultivation of HIV-infected and HIV-non-infected Molt-4 cells; 20 hours of the cultivation; read-out: concentration of SBA that can inhibit the formation of the giant cells. As for the experimental part: In the tests above, the replication of the viral particles of HIV was examined in terms of the amount of the p24 antigen protein produced and appearing in the culture supernatant from the cultivated cells. Thus, the amount of the p24 antigen produced was measured periodically over 6 days after the A3.01 cells were infested with HIV. It was then observed that in the absence of SBA, the replication of the viral particles of HIV was induced in the A3.01 cells by stimulation with 10 units/ml of TNF-α added. […] Thus, the effective amount of SBA has the activity to inhibit the replication of the viral particles of HIV within the cells to an extent as same as AZT, and from this it is expected that SBA is useful similarly to AZT for the therapeutic treatments of AIDS. (d) Tests for evaluating an inhibitory activity of SBA to the formation of giant cells from HIV-infected Molt-4 cells In a similar manner to that in the above Test (c), Molt-4 cells (a CD4-positive human T-cell strain) were infected with AIDS virus, HIVBRU. Thereafter, The HIV-infected Molt-4 cells were mixed with such Molt-4 cells which had no HIV-infection. And the mixture of these cells were cultivated at a high density of the mixed cells in the above-mentioned improved RPM1-1640 medium containing SBA at its different concentrations. […]

Counter-ions that a name gives are not always drawn. Like-named read-outs stand apart in the source and are kept apart here.

In the case of `O=C1O[C@H]([C@@H]2COC(c3ccccc3)O2)C(O)=C1O` (stereo partly drawn) [SBA, 5,6-O-benzylidene-L-ascorbic acid mono-sodium salt], the viability amounted to 90% in data set [1] (SBA 100 µg/ml), 100% in data set [1] (SBA 500 µg/ml), 83% in data set [1] (SBA 800 µg/ml) and 92% in data set [1] (SBA 1000 µg/ml). For the same molecule, the minimal effective concentration with HIVBRU is at least 10 µg/mL.
